# Reference: article PMC6977461 (Chemical Science, 2019)
# pEC50: −log10 of the molar value. Where two headings read alike, the source gives them in different places.
# Key:
# [1] = mouse plasma degradation assay (Methods MP1-MP3); format: in vitro ADME
# Method: The oligomer was then diluted 1/50 with a solution of plasma/PBS pH 7.4 (1/1) to afford a final concentration of 5μM and incubated at 37°C. […] (t = 0 min was determined using the reaction without plasma). The samples were frozen at -80°C before analysis. […] The supernatant was analyzed by LC-MS. The time course of oligomer degradation was determined by integrating the area of the peak in the extracted ion chromatogram. […] The oligomer was then diluted 1/50 with a solution of plasma/PBS pH 7.4 (1/1) to afford a final concentration of 5μM and incubated at 37°C. […] The oligomer was then diluted 1/50 with a solution of plasma/PBS pH 7.4 (1/1) to afford a final concentration of 5μM and incubated at 37°C. […] Animals. […] A standard chow diet (RM1 (E) 801492, SDS) and tap water were provided ad libitum. All animal protocols done by Physiogenex S.A.S were reviewed and approved by the local (Comité […] national ([…]
# [2] = biological target: T1, mouse GLP-1 receptor (Mus musculus, UniProt O35659); test: cAMP production in βTC6 cells expressing GLP-1R endogenously (Method C2); format: cell-based; conditions: for loss in potency relative to 3 (fold): figures for 6-8 match the βTC6 EC50 values of Table S1; for Potency (%), Table S1: from EC50 in βTC6 cAMP assay, footnote: compare to GLP-1-NH2 (2)
# T1 construct: βTC6 cells which express GLP-1R endogenously; host or cells: βTC6 cells
# T1 sequence (O35659 22-463): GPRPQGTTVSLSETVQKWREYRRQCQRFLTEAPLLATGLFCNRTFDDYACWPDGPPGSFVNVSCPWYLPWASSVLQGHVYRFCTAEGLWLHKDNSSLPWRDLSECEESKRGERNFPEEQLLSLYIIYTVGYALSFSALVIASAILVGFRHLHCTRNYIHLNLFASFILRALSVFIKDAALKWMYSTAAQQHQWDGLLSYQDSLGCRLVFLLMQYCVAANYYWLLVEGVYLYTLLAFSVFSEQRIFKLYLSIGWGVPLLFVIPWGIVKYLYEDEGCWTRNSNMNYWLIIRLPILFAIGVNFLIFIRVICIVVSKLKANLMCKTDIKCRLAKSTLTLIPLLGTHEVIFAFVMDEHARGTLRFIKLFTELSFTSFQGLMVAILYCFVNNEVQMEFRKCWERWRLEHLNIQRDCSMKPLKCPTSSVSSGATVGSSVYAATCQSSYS
# [3] = biological target: GLP-1R (Homo sapiens, UniProt P43220); test: cAMP production functional assay in HEK293 cells transfected with GLP-1R (Method C1); format: cell-based; design: host or cells: HEK-293T; conditions: for pEC50: HEK-293T cells exogenously expressing human GLP-1R, cAMP by HTRF, 10 min at 37 °C, Method C1, mean, n = 3 (2: n = 6), read-out: EC50 (GLP-1R potency); for Potency (%), percentage of potency compared to GLP-1-NH2: from EC50 in HEK293 GLP-1R cAMP assay
# Chain of GLP-1R (P43220 24-463): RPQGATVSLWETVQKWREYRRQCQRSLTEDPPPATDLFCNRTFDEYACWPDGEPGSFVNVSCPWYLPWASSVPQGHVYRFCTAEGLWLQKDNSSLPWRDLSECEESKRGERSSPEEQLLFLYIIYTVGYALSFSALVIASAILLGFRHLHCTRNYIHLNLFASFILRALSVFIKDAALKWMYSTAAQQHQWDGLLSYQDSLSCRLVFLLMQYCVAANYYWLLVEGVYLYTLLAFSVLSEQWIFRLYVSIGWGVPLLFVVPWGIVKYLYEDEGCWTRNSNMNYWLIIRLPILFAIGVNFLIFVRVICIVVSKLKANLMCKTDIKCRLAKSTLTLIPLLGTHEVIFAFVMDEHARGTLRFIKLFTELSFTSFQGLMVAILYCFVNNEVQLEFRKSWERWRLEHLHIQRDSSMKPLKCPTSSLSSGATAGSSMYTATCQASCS
# Method:  HEK-293T cells (Multispan inc., lot#.DC1267-062017) were suspended in cell culture media
# (DMEM 1X + GlutaMAX (Gibco 31966-021)) complemented with FBS 10% (Sigma Aldrich
#  βTC6 cells were suspended in HBSS buffer (Invitrogen) complemented with 20 mM HEPES (pH
# In vitro pharmacology on HEK-293T cells (EC50: Method C1)
# cells (Multispan inc., lot#.DC1267-062017) was determined by measuring their effects on cAMP
# production using the HTRF detection method (performed by UREkA SARL). The cells were distributed
# in 384-well microplates at a density of 1.0x10^4 cells/well. Stock solutions of the test compounds or the
# reference agonist were prepared at a concentration of 1 mM in DMSO. Then, compounds to be tested
# were diluted in cell culture media and transferred to the plate containing the cells to reach final assay
# [4] = mouse plasma diluted 1/1 with PBS, mouse plasma/PBS pH 7.4 (1/1), 5 µM, 37 °C, acetonitrile quench, LC-MS extracted ion chromatogram, MP1 for 2-8, MP2 for 9-11, MP3 for 12-14, mean, n = 3, read-out: Mouse plasma t1/2 (converted)
# [5] = read-out: EC50 (GLP-1R potency), Table S1
SMILES,"half-life at 5 µM [1, 4] [min]",loss in potency relative to 3 (fold) [2] [fold],"Potency (%), Table S1 [2] [%]","pEC50 [2, 5]",pEC50 [3],"Potency (%), percentage of potency compared to GLP-1-NH2 [3] [%]",pEC50 [2],"half-life at 5 µM ([1]; mouse, plasma, pH 7.4) [min]"
CC[C@H](C)[C@H](NC(=O)[C@H](Cc1ccccc1)NC(=O)[C@H](CCC(=O)O)NC(=O)[C@H](CCCCN)NC(=O)[C@H](C)NC(=O)[C@H](C)NC(=O)[C@H](CCC(N)=O)NC(=O)CNC(=O)[C@H](CCC(=O)O)NC(=O)[C@H](CC(C)C)NC(=O)[C@H](Cc1ccc(O)cc1)NC(=O)[C@H](CO)NC(=O)[C@H](CO)NC(=O)[C@@H](NC(=O)[C@H](CC(=O)O)NC(=O)[C@H](CO)NC(=O)[C@@H](NC(=O)[C@H](Cc1ccccc1)NC(=O)[C@@H](NC(=O)CNC(=O)[C@H](CCC(=O)O)NC(=O)CC[C@H](C)NC(=O)[C@@H](N)Cc1c[nH]cn1)[C@@H](C)O)[C@@H](C)O)C(C)C)C(=O)N[C@@H](C)C(=O)N[C@@H](Cc1c[nH]c2ccccc12)C(=O)N[C@@H](CC(C)C)C(=O)N[C@H](C(=O)N[C@@H](CCCCN)C(=O)NCC(=O)N[C@@H](CCCNC(=N)N)C(=O)NCC(N)=O)C(C)C [compound 4],13.8,,,,,,,
CC[C@H](C)[C@H](NC(=O)[C@H](Cc1ccccc1)NC(=O)[C@H](CCC(=O)O)NC(=O)[C@H](CCCCN)NC(=O)[C@H](C)NC(=O)[C@H](C)NC(=O)[C@H](CCC(N)=O)NC(=O)CNC(=O)[C@H](CCC(=O)O)NC(=O)[C@H](CC(C)C)NC(=O)[C@H](Cc1ccc(O)cc1)NC(=O)[C@H](CO)NC(=O)[C@H](CO)NC(=O)[C@@H](NC(=O)[C@H](CC(=O)O)NC(=O)[C@H](CO)NC(=O)[C@@H](NC(=O)[C@H](Cc1ccccc1)NC(=O)[C@@H](NC(=O)CNC(=O)[C@H](CCC(=O)O)NC(=O)NC[C@@H](NC(=O)[C@@H](N)Cc1c[nH]cn1)C(C)C)[C@@H](C)O)[C@@H](C)O)C(C)C)C(=O)N[C@@H](C)C(=O)N[C@@H](Cc1c[nH]c2ccccc12)C(=O)N[C@@H](CC(C)C)C(=O)N[C@H](C(=O)N[C@@H](CCCCN)C(=O)NCC(=O)N[C@@H](CCCNC(=N)N)C(=O)NCC(N)=O)C(C)C [compound 8],18,> 1000,< 0.01,< 5.00,8.67,,,
CC[C@H](C)[C@H](NC(=O)[C@H](Cc1ccccc1)NC(=O)[C@H](CCC(=O)O)NC(=O)[C@H](CCCCN)NC(=O)[C@H](C)NC(=O)[C@H](C)NC(=O)[C@H](CCC(N)=O)NC(=O)CNC(=O)[C@H](CCC(=O)O)NC(=O)[C@H](CC(C)C)NC(=O)[C@H](Cc1ccc(O)cc1)NC(=O)[C@H](CO)NC(=O)[C@H](CO)NC(=O)[C@@H](NC(=O)[C@H](CC(=O)O)NC(=O)[C@H](CO)NC(=O)[C@@H](NC(=O)[C@H](Cc1ccccc1)NC(=O)[C@@H](NC(=O)CNC(=O)[C@H](CCC(=O)O)NC(=O)NCCNC(=O)[C@@H](N)Cc1c[nH]cn1)[C@@H](C)O)[C@@H](C)O)C(C)C)C(=O)N[C@@H](C)C(=O)N[C@@H](Cc1c[nH]c2ccccc12)C(=O)N[C@@H](CC(C)C)C(=O)N[C@H](C(=O)N[C@@H](CCCCN)C(=O)NCC(=O)N[C@@H](CCCNC(=N)N)C(=O)NCC(N)=O)C(C)C [compound 7],13.2,5,13,9.10,11.28,59,,
CC[C@H](C)[C@H](NC(=O)[C@H](Cc1ccccc1)NC(=O)[C@H](CCC(=O)O)NC(=O)[C@H](CCCCN)NC(=O)[C@H](C)NC(=O)[C@H](C)NC(=O)[C@H](CCC(N)=O)NC(=O)CNC(=O)[C@H](CCC(=O)O)NC(=O)[C@H](CC(C)C)NC(=O)[C@H](Cc1ccc(O)cc1)NC(=O)[C@H](CO)NC(=O)[C@H](CO)NC(=O)[C@@H](NC(=O)[C@H](CC(=O)O)NC(=O)[C@H](CO)NC(=O)[C@@H](NC(=O)[C@H](Cc1ccccc1)NC(=O)[C@@H](NC(=O)CNC(=O)[C@H](CCC(=O)O)NC(=O)OC[C@H](C)NC(=O)[C@@H](N)Cc1c[nH]cn1)[C@@H](C)O)[C@@H](C)O)C(C)C)C(=O)N[C@@H](C)C(=O)N[C@@H](Cc1c[nH]c2ccccc12)C(=O)N[C@@H](CC(C)C)C(=O)N[C@H](C(=O)N[C@@H](CCCCN)C(=O)NCC(=O)N[C@@H](CCCNC(=N)N)C(=O)NCC(N)=O)C(C)C [compound 5],12.6,,13,9.10,,,,
CC[C@H](C)[C@H](NC(=O)[C@H](Cc1ccccc1)NC(=O)[C@H](CCC(=O)O)NC(=O)[C@H](CCCCN)NC(=O)[C@H](C)NC(=O)[C@H](C)NC(=O)[C@H](CCC(N)=O)NC(=O)CNC(=O)[C@H](CCC(=O)O)NC(=O)[C@H](CC(C)C)NC(=O)[C@H](Cc1ccc(O)cc1)NC(=O)[C@H](CO)NC(=O)[C@H](CO)NC(=O)[C@@H](NC(=O)[C@H](CC(=O)O)NC(=O)[C@H](CO)NC(=O)[C@@H](NC(=O)[C@H](Cc1ccccc1)NC(=O)[C@@H](NC(=O)CNC(=O)[C@H](CCC(=O)O)NC(=O)NC[C@H](CS)NC(=O)[C@@H](N)Cc1c[nH]cn1)[C@@H](C)O)[C@@H](C)O)C(C)C)C(=O)N[C@@H](C)C(=O)N[C@@H](Cc1c[nH]c2ccccc12)C(=O)N[C@@H](CC(C)C)C(=O)N[C@H](C(=O)N[C@@H](CCCCN)C(=O)NCC(=O)N[C@@H](CCCNC(=N)N)C(=O)NCC(N)=O)C(C)C [S3],,,0,7.19,,,,
CC[C@H](C)[C@H](NC(=O)[C@H](Cc1ccccc1)NC(=O)[C@H](CCC(=O)O)NC(=O)[C@H](CCCCN)NC(=O)[C@H](C)NC(=O)[C@H](C)NC(=O)[C@H](CCC(N)=O)NC(=O)CNC(=O)[C@H](CCC(=O)O)NC(=O)[C@H](CC(C)C)NC(=O)[C@H](Cc1ccc(O)cc1)NC(=O)[C@H](CO)NC(=O)[C@H](CO)NC(=O)[C@@H](NC(=O)[C@H](CC(=O)O)NC(=O)[C@H](CO)NC(=O)[C@@H](NC(=O)[C@H](Cc1ccccc1)NC(=O)[C@@H](NC(=O)CNC(=O)[C@H](CCC(=O)O)NC(=O)NC[C@H](Cc1c[nH]c2ccccc12)NC(=O)[C@@H](N)Cc1c[nH]cn1)[C@@H](C)O)[C@@H](C)O)C(C)C)C(=O)N[C@@H](C)C(=O)N[C@@H](Cc1c[nH]c2ccccc12)C(=O)N[C@@H](CC(C)C)C(=O)N[C@H](C(=O)N[C@@H](CCCCN)C(=O)NCC(=O)N[C@@H](CCCNC(=N)N)C(=O)NCC(N)=O)C(C)C [S11],,,5,,,,8.66,
"CC[C@H](C)[C@H](NC(=O)[C@H](Cc1ccccc1)NC(=O)[C@H](CCC(=O)O)NC(=O)[C@H](CCCCN)NC(=O)[C@H](C)NC(=O)[C@H](C)NC(=O)[C@H](CCC(N)=O)NC(=O)CNC(=O)[C@H](CCC(=O)O)NC(=O)[C@H](CC(C)C)NC(=O)[C@H](Cc1ccc(O)cc1)NC(=O)[C@H](CO)NC(=O)[C@H](CO)NC(=O)[C@@H](NC(=O)[C@H](CC(=O)O)NC(=O)[C@H](CO)NC(=O)[C@@H](NC(=O)[C@H](Cc1ccccc1)NC(=O)[C@@H](NC(=O)CNC(=O)[C@H](CCC(=O)O)NC(=O)[C@H](C)NC(=O)[C@@H](N)Cc1cnc[nH]1)[C@@H](C)O)[C@@H](C)O)C(C)C)C(=O)N[C@@H](C)C(=O)N[C@@H](Cc1c[nH]c2ccccc12)C(=O)N[C@@H](CC(C)C)C(=O)N[C@H](C(=O)N[C@@H](CCCCN)C(=O)NCC(=O)N[C@@H](CCCNC(=N)N)C(=O)NCC(N)=O)C(C)C [compound 2, GLP-1-NH2, reference compound]",,,,,,,,8.4
CC[C@H](C)[C@H](NC(=O)[C@H](Cc1ccccc1)NC(=O)[C@H](CCC(=O)O)NC(=O)[C@H](CCCCN)NC(=O)[C@H](C)NC(=O)[C@H](C)NC(=O)[C@H](CCC(N)=O)NC(=O)CNC(=O)[C@H](CCC(=O)O)NC(=O)[C@H](CC(C)C)NC(=O)[C@H](Cc1ccc(O)cc1)NC(=O)[C@H](CO)NC(=O)[C@H](CO)NC(=O)[C@@H](NC(=O)[C@H](CC(=O)O)NC(=O)[C@H](CO)NC(=O)[C@@H](NC(=O)[C@H](Cc1ccccc1)NC(=O)[C@@H](NC(=O)CNC(=O)[C@H](CCC(=O)O)NC(=O)NC(C)CNC(=O)[C@@H](N)Cc1c[nH]cn1)[C@@H](C)O)[C@@H](C)O)C(C)C)C(=O)N[C@@H](C)C(=O)N[C@@H](Cc1c[nH]c2ccccc12)C(=O)N[C@@H](CC(C)C)C(=O)N[C@H](C(=O)N[C@@H](CCCCN)C(=O)NCC(=O)N[C@@H](CCCNC(=N)N)C(=O)NCC(N)=O)C(C)C (some centres unmarked) [compound 6],22.2,24,3,8.47,10.92,25,,
